Source: PubChem BioAssay (NCI)
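Step 1: Grow cells in 96-well plates. Step 2: Expose to compound for 48 hours at 5 concentrations. Step 3: Interpolate endpoints linearly; if unreached, use highest concentration. Here, GI50 denotes the concentration required for 50% inhibition of growth. TGI is the concentration that stops growth completely.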

Tests used:
Assay in all cases: NCI tumour cell line growth inhibition, 48 h
[1] = system: DU-145 prostate
[2] = system: RPMI-8226 leukemia
[3] = system: MDA-N
[4] = system: A498 renal
[5] = system: COLO 205 colon
[6] = system: NCI-H23 lung
[7] = system: CAKI-1 renal
[8] = system: HL-60(TB) leukemia
[9] = system: OVCAR-8 ovarian
[10] = system: BT-549 breast
[11] = system: EKVX NSCLC
[12] = system: HOP-92 NSCLC
[13] = system: NCI-H226 lung
[14] = system: 786-0 renal
[15] = system: IGROV1 ovarian
[16] = system: SF-539 CNS
[17] = system: NCI-H460 lung
[18] = system: NCI/ADR-RES ovarian
[19] = system: A549 NSCLC
[20] = system: SW-620 colon
[21] = system: UACC-257 melanoma
[22] = system: PC-3 prostate
[23] = system: MOLT-4 leukemia
[24] = system: SF-295 CNS
[25] = system: OVCAR-3 ovarian
[26] = system: HOP-62 NSCLC
[27] = system: U251 CNS
[28] = system: LOX IMVI melanoma
[29] = system: SK-MEL-5 melanoma
[30] = system: NCI-H522 lung
[31] = system: HCT-116 colon
[32] = system: UO-31 renal
[33] = system: OVCAR-5 ovarian
[34] = system: SR leukemia
[35] = system: KM12 colon
[36] = system: MCF7 breast
[37] = system: K-562 leukemia
[38] = system: HT29 colon
[39] = system: OVCAR-4 ovarian
[40] = system: SNB-19 CNS
[41] = system: HS 578T breast
[42] = system: MALME-3M melanoma
[43] = system: HCT-15 colon
[44] = system: MDA-MB-231 breast
[45] = system: MDA-MB-435
[46] = system: TK-10 renal
[47] = system: SK-MEL-28 melanoma
[48] = system: SF-268 CNS
[49] = system: ACHN renal
[50] = system: SN12C renal
[51] = system: HCC-2998 colon
[52] = system: CCRF-CEM leukemia
[53] = system: UACC-62 melanoma
[54] = system: SK-OV-3 ovarian
[55] = system: SK-MEL-2 melanoma
[56] = system: SNB-75 CNS
[57] = system: M14 melanoma
[58] = system: T-47D breast
[59] = system: RXF 393 renal

O=C(Nc1nc(C23CC4CC(CC(C4)C2)C3)cs1)c1cc2c(ccc3ccccc32)oc1=O
TGI [1]: > 100 µM
TGI [2]: > 100 µM
TGI [3]: > 100 µM
TGI [4]: > 100 µM
TGI [5]: > 100 µM
TGI [6]: > 100 µM
TGI [7]: > 100 µM
TGI [8]: > 100 µM
TGI [9]: > 100 µM
TGI [10]: > 100 µM
TGI [11]: > 100 µM
TGI [12]: > 100 µM
TGI [13]: > 100 µM
TGI [14]: > 100 µM
TGI [15]: > 100 µM
TGI [16]: > 100 µM
TGI [17]: > 100 µM
TGI [18]: > 100 µM
TGI [19]: > 100 µM
TGI [20]: > 100 µM
TGI [21]: > 100 µM
TGI [22]: > 100 µM
TGI [23]: > 100 µM
TGI [24]: > 100 µM
TGI [25]: > 100 µM
TGI [26]: > 100 µM
TGI [27]: > 100 µM
TGI [28]: > 100 µM
TGI [29]: > 100 µM
TGI [30]: > 100 µM
TGI [31]: > 100 µM
TGI [32]: > 100 µM
TGI [33]: > 100 µM
TGI [34]: > 100 µM
TGI [35]: > 100 µM
TGI [36]: > 100 µM
TGI [37]: > 100 µM
TGI [38]: > 100 µM
TGI [39]: > 100 µM
TGI [40]: > 100 µM
TGI [41]: > 100 µM
TGI [42]: > 100 µM
TGI [43]: > 100 µM
TGI [44]: > 100 µM
TGI [45]: > 100 µM
TGI [46]: > 100 µM
TGI [47]: > 100 µM
TGI [48]: > 100 µM
TGI [49]: > 100 µM
TGI [50]: > 100 µM
TGI [51]: > 100 µM
TGI [52]: > 100 µM

O=C1/C(=C/c2cccs2)NC(=S)N1CN1CCCC(CO)C1 (stereo not given)
TGI [1]: > 100 µM
TGI [2]: > 100 µM
TGI [3]: > 100 µM
TGI [4]: > 100 µM
TGI [5]: > 100 µM
TGI [6]: > 100 µM
TGI [9]: > 100 µM
TGI [53]: > 100 µM
TGI [11]: > 100 µM
TGI [12]: > 100 µM
TGI [13]: > 100 µM
TGI [14]: > 100 µM
TGI [15]: > 100 µM
TGI [18]: > 100 µM
TGI [19]: > 100 µM
TGI [20]: > 100 µM
TGI [21]: > 100 µM
TGI [22]: > 100 µM
TGI [23]: > 100 µM
TGI [24]: > 100 µM
TGI [25]: > 100 µM
TGI [26]: > 100 µM
TGI [27]: > 100 µM
TGI [28]: > 100 µM
TGI [29]: > 100 µM
TGI [31]: > 100 µM
TGI [32]: > 100 µM
TGI [33]: > 100 µM
TGI [34]: > 100 µM
TGI [35]: > 100 µM
TGI [36]: > 100 µM
TGI [37]: > 100 µM
TGI [54]: > 100 µM
TGI [38]: > 100 µM
TGI [39]: > 100 µM
TGI [55]: > 100 µM
TGI [40]: > 100 µM
TGI [41]: > 100 µM
TGI [42]: > 100 µM
TGI [43]: > 100 µM
TGI [44]: > 100 µM
TGI [45]: > 100 µM
TGI [46]: > 100 µM
TGI [47]: > 100 µM
TGI [48]: > 100 µM
TGI [49]: > 100 µM
TGI [50]: > 100 µM
TGI [56]: > 100 µM
TGI [57]: > 100 µM
TGI [52]: > 100 µM

OC(c1ccccc1)C(F)(F)c1nc2ccccc2o1 (stereo not given)
TGI [1]: > 100 µM
TGI [2]: > 100 µM
TGI [4]: > 100 µM
TGI [5]: > 100 µM
TGI [6]: > 100 µM
TGI [58]: > 100 µM
TGI [7]: > 100 µM
TGI [8]: > 100 µM
TGI [9]: > 100 µM
TGI [10]: > 100 µM
TGI [53]: > 100 µM
TGI [11]: > 100 µM
TGI [12]: > 100 µM
TGI [13]: > 100 µM
TGI [14]: > 100 µM
TGI [15]: > 100 µM
TGI [16]: > 100 µM
TGI [17]: > 100 µM
TGI [18]: > 100 µM
TGI [20]: > 100 µM
TGI [21]: > 100 µM
TGI [22]: > 100 µM
TGI [23]: > 100 µM
TGI [24]: > 100 µM
TGI [26]: > 100 µM
TGI [27]: > 100 µM
TGI [28]: > 100 µM
TGI [29]: > 100 µM
TGI [59]: > 100 µM
TGI [31]: > 100 µM
TGI [32]: > 100 µM
TGI [34]: > 100 µM
TGI [35]: > 100 µM
TGI [36]: > 100 µM
TGI [37]: 75.3 µM
TGI [54]: > 100 µM
TGI [38]: > 100 µM
TGI [39]: > 100 µM
TGI [55]: > 100 µM
TGI [40]: > 100 µM
TGI [41]: > 100 µM
TGI [43]: > 100 µM
TGI [44]: > 100 µM
TGI [45]: > 100 µM
TGI [46]: > 100 µM
TGI [47]: > 100 µM
TGI [48]: > 100 µM
TGI [49]: > 100 µM
TGI [56]: > 100 µM
TGI [51]: > 100 µM
TGI [57]: > 100 µM
TGI [52]: > 100 µM

C[C@@H]1CC[C@@H]2[C@@H](C)C[C@H]3[C@@H]4C(C)(C)OC(=O)[C@]4(C)C(=O)[C@@]23C1=O
TGI [1]: > 100 µM
TGI [2]: > 100 µM
TGI [5]: > 100 µM
TGI [6]: > 100 µM
GI50 [58]: 65.3 µM
TGI [58]: > 100 µM
TGI [7]: > 100 µM
TGI [8]: > 100 µM
TGI [9]: > 100 µM
TGI [10]: > 100 µM
GI50 [53]: 70 µM
TGI [53]: > 100 µM
TGI [11]: > 100 µM
TGI [13]: > 100 µM
TGI [14]: > 100 µM
TGI [15]: > 100 µM
TGI [16]: > 100 µM
TGI [17]: > 100 µM
TGI [18]: > 100 µM
TGI [19]: > 100 µM
TGI [20]: > 100 µM
TGI [21]: > 100 µM
GI50 [22]: > 100 µM
TGI [22]: > 100 µM
TGI [23]: > 100 µM
TGI [24]: > 100 µM
GI50 [25]: 75.9 µM
TGI [25]: > 100 µM
TGI [26]: > 100 µM
GI50 [27]: 31.9 µM
TGI [27]: > 100 µM
TGI [28]: > 100 µM
TGI [29]: > 100 µM
GI50 [30]: > 100 µM
TGI [30]: > 100 µM
GI50 [59]: > 100 µM
TGI [59]: > 100 µM
TGI [31]: > 100 µM
GI50 [32]: > 100 µM
TGI [32]: > 100 µM
TGI [33]: > 100 µM
TGI [35]: > 100 µM
TGI [36]: > 100 µM
TGI [37]: > 100 µM
TGI [54]: > 100 µM
TGI [38]: > 100 µM
TGI [39]: > 100 µM
GI50 [55]: > 100 µM
TGI [55]: > 100 µM
TGI [40]: > 100 µM
TGI [41]: > 100 µM
TGI [42]: > 100 µM
GI50 [43]: 16.4 µM
TGI [43]: > 100 µM
GI50 [44]: > 100 µM
TGI [44]: > 100 µM
TGI [45]: > 100 µM
TGI [46]: > 100 µM
TGI [47]: > 100 µM
TGI [48]: > 100 µM
TGI [49]: > 100 µM
TGI [50]: > 100 µM
TGI [56]: > 100 µM
TGI [51]: > 100 µM
TGI [57]: > 100 µM
TGI [52]: > 100 µM
